Measurements from patent US20200207759A1, “NEW PROPANAMINE DERIVATIVES FOR TREATING PAIN AND PAIN RELATED CONDITIONS” (ESTEVE PHARMACEUTICALS, S.A., priority 2017, published 2020).

Tests used:
[1] = molecular target: Human α2δ-1 subunit of Cav2.2 calcium channel (Homo sapiens, UniProt P54289); assay: Binding assay to human α2δ-1 subunit of Cav2.2 calcium channel, [3H]-Gabapentin; details: human α2δ-1 enriched membranes, 15 nM [3H]-Gabapentin; read-out: Ki (nM) alpha2delta Hum
Description: Binding Assay to Human α2δ-1 Subunit of Cav2.2 Calcium Channel.
Human α2δ-1 enriched membranes (2.5 μg) were incubated with 15 nM of radiolabeled [3H]-Gabapentin in assay buffer containing Hepes-KOH 10 mM, pH 7.4.
(§1) NSB (non specific binding) was measured by adding 10 μM pregabalin. After 60 min incubation at 27° C., binding reaction was terminated by filtering through Multiscreen GF/C (Millipore) presoaked in 0.5% polyethyleneimine in Vacuum Manifold Station, followed by 3 washes with ice-cold filtration buffer containing 50 mM Tris-HCl, pH 7.4.
Filter plates were dried at 60° C. for 1 hour and 30 μl of scintillation cocktail were added to each well before radioactivity reading.
Readings were performed in a Trilux 1450 Microbeta radioactive counter (Perkin Elmer).

[2] = molecular target: Human norepinephrine transporter (NET) (Homo sapiens, UniProt P23975); assay: Binding assay to human norepinephrine transporter (NET), [3H]-Nisoxetin; details: human NET enriched membranes, 5 nM [3H]-Nisoxetin; read-out: Ki (nM) NET Hum
Chain of Human norepinephrine transporter (NET) (P23975 whole entry): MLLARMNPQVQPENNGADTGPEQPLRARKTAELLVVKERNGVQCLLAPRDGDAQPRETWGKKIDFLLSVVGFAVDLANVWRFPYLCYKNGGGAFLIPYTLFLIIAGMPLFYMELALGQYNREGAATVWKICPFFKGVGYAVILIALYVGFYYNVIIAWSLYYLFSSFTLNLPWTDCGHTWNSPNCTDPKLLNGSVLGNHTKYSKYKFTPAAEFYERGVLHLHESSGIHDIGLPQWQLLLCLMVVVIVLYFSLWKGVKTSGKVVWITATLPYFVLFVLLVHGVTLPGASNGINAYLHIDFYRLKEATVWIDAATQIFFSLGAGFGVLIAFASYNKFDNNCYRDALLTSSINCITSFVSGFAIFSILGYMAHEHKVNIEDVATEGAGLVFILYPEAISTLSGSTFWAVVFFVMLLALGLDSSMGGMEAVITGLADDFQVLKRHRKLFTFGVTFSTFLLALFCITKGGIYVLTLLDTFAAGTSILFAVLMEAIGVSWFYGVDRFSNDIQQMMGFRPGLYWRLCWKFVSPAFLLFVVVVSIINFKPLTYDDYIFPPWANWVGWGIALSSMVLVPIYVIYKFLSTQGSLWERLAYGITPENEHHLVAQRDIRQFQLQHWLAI
Description: Binding Assay to Human Norepinephrine Transporter (NET).
Human norepinephrine transporter (NET) enriched membranes (5 μg) were incubated with 5 nM of radiolabeled [3H]-Nisoxetin in assay buffer containing 50 mM Tris-HCl, 120 mM NaCl, 5 mM KCl, pH 7.4.
as §1, with “1 μM.” for “10 μM pregabalin.”, “4°” for “27°”, “Tris-HCl, 0.9% NaCl,” for “Tris-HCl,”, “7.4. Filter plates were dried at 60° C. for 1 hour and 30 μl of scintillation cocktail were added to each well before radioactivity reading.” for “7.4.”

Chain of Human α2δ-1 subunit of Cav2.2 calcium channel (P54289 25-1103): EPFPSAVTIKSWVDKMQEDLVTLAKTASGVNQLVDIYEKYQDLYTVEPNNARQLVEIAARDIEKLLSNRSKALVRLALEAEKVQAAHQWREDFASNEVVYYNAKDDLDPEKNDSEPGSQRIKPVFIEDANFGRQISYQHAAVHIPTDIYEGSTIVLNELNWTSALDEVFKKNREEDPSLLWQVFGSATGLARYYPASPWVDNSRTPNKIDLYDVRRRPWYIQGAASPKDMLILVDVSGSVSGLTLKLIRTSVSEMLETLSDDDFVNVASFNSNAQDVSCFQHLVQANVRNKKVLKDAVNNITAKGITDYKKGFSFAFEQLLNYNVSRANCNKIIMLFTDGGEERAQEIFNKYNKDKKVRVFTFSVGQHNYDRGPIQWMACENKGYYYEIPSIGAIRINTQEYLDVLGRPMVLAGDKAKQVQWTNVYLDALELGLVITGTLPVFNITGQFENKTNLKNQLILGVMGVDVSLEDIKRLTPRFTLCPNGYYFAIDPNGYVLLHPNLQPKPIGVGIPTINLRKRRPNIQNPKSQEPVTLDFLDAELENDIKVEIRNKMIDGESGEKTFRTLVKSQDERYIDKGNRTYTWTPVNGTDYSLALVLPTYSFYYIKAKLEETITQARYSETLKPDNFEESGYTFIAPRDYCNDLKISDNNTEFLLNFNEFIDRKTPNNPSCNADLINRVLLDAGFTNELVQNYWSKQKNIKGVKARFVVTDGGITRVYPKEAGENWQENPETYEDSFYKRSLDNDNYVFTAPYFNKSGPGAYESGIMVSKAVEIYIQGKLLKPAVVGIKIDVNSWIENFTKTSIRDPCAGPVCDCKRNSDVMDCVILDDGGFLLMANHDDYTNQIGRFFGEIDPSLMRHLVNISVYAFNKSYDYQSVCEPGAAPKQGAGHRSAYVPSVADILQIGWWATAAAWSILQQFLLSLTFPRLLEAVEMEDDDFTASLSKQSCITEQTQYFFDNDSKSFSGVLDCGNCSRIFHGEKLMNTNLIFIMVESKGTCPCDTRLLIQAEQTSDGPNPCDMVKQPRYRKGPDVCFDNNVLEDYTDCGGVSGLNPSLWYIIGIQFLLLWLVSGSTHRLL

Ki [1] [nM]	Ki [2] [nM]	Structure (SMILES)
100 to 500	> 1000	CNCC[C@H](c1ccsc1)N1CC(C)(C)c2nc(C)ccc21 [Example 58, (R)-N-methyl-3-(thiophen-3-yl)-3-(3,3,5-trimethyl-2,3-dihydro-1H-pyrrolo[3,2-b]pyridin-1-yl)propan-1-amine]
100 to 500	100 to 500	CNCC[C@@H](c1ccsc1)N1CC(C)(C)c2nc(C)ccc21 [Example 59, (S)-N-methyl-3-(thiophen-3-yl)-3-(3,3,5-trimethyl-2,3-dihydro-1H-pyrrolo[3,2-b]pyridin-1-yl)propan-1-amine]
100 to 500	> 1000	CNCC[C@H](c1ccsc1)N1CC(C)(C)c2ncc(C)cc21 [Example 60, (R)-N-methyl-3-(thiophen-3-yl)-3-(3,3,6-trimethyl-2,3-dihydro-1H-pyrrolo[3,2-b]pyridin-1-yl)propan-1-amine]
500 to 3000	> 1000	CNCC[C@@H](c1ccsc1)N1CC(C)(C)c2ncc(C)cc21 [Example 61, (S)-N-methyl-3-(thiophen-3-yl)-3-(3,3,6-trimethyl-2,3-dihydro-1H-pyrrolo[3,2-b]pyridin-1-yl)propan-1-amine]
500 to 3000	> 1000	CNCC[C@H](c1ccsc1)N1CCc2nc(C)ccc21 [Example 62, (R)—N-methyl-3-(5-methyl-2,3-dihydro-1H-pyrrolo[3,2-b]pyridin-1-yl)-3-(thiophen-3-yl)propan-1-amine]
500 to 3000	500 to 1000	CNCC[C@@H](c1ccsc1)N1CCc2nc(C)ccc21 [Example 63, (S)—N-methyl-3-(5-methyl-2,3-dihydro-1H-pyrrolo[3,2-b]pyridin-1-yl)-3-(thiophen-3-yl)propan-1-amine]
< 100	100 to 500	CNCCC(c1cccs1)N1CC(C)(C)c2nc(C)ccc21 (stereo not drawn) [Example 64, N-methyl-3-(thiophen-2-yl)-3-(3,3,5-trimethyl-2,3-dihydro-1H-pyrrolo[3,2-b]pyridin-1-yl)propan-1-amine]
< 100	> 1000	CNCCC(c1ccsc1)N1CC(C)(C)c2ncc(F)cc21 (stereo not drawn) [Example 65, 3-(6-Fluoro-3,3-dimethyl-2,3-dihydro-1H-pyrrolo[3,2-b]pyridin-1-yl)-N-methyl-3-(thiophen-3-yl)propan-1-amine]
100 to 500	> 1000	CNCCC(c1cccs1)N1CC(C)(C)c2ncc(F)cc21 (stereo not drawn) [Example 66, 3-(6-Fluoro-3,3-dimethyl-2,3-dihydro-1H-pyrrolo[3,2-b]pyridin-1-yl)-N-methyl-3-(thiophen-2-yl)propan-1-amine]
500 to 3000	< 100	CNCCC(c1cccs1)N1CCc2c(F)cccc21 (stereo not drawn) [Example 67, 3-(4-Fluoroindolin-1-yl)-N-methyl-3-(thiophen-2-yl)propan-1-amine]
500 to 3000	< 100	CNCCC(c1cccs1)N1CCc2c(F)cc(F)cc21 (stereo not drawn) [Example 68, 3-(4,6-Difluoroindolin-1-yl)-N-methyl-3-(thiophen-2-yl)propan-1-amine]
≥ 3000	< 100	CNCCC(c1cccs1)N1CCc2c(OC)cccc21 (stereo not drawn) [Example 69, 3-(4-Methoxyindolin-1-yl)-N-methyl-3-(thiophen-2-yl)propan-1-amine]
< 100	100 to 500	CNCCC(c1ccsc1)N1CC(C)(C)c2nc(C)c(F)cc21 (stereo not drawn) [Example 71, 3-(6-Fluoro-3,3,5-trimethyl-2,3-dihydro-1H-pyrrolo[3,2-b]pyridin-1-yl)-N-methyl-3-(thiophen-3-yl)propan-1-amine]
≥ 3000	100 to 500	CNCCC(c1cccs1)N1CCc2cc(F)ccc21 (stereo not drawn) [Example 72, 3-(5-Fluoroindolin-1-yl)-N-methyl-3-(thiophen-2-yl)propan-1-amine]
100 to 500	> 1000	CNCCC(c1cccs1)N1CC(C)(C)c2ncc(Cl)cc21 (stereo not drawn) [Example 73, 3-(6-Chloro-3,3-dimethyl-2,3-dihydro-1H-pyrrolo[3,2-b]pyridin-1-yl)-N-methyl-3-(thiophen-2-yl)propan-1-amine]
500 to 3000	> 1000	CNCCC(c1ccsc1)N1CCc2cnccc21 (stereo not drawn) [Example 74, 3-(2,3-Dihydro-1H-pyrrolo[3,2-c]pyridin-1-yl)-N-methyl-3-(thiophen-3-yl)propan-1-amine]
100 to 500	> 1000	CNCCC(c1cccs1)N1CC(C)(C)c2nc(C(F)(F)F)ccc21 (stereo not drawn) [Example 75, 3-(3,3-Dimethyl-5-(trif1uoromethyl)-2,3-dihydro-1H-pyrrolo[3,2-b]pyridin-1-yl)-N-methyl-3-(thiophen-2-yl)propan-1-amine]
100 to 500	100 to 500	CCc1cnc2c(c1)N([C@H](CCNC)c1ccsc1)CC2 [Example 76, (R)-3-(6-Ethyl-2,3-dihydro-1H-pyrrolo[3,2-b]pyridin-1-yl)-N-methyl-3-(thiophen-3-yl)propan-1-amine]
500 to 3000	100 to 500	CCc1cnc2c(c1)N([C@@H](CCNC)c1ccsc1)CC2 [Example 77, (S)-3-(6-Ethyl-2,3-dihydro-1H-pyrrolo[3,2-b]pyridin-1-yl)-N-methyl-3-(thiophen-3-yl)propan-1-amine]
500 to 3000	500 to 1000	CNCC[C@@H](c1cccc(F)c1)N1CCc2ncccc21 [Example 82, (S)-3-(2,3-Dihydro-1H-pyrrolo[3,2-b]pyridin-1-yl)-3-(3-fluorophenyl)-N-methylpropan-1-amine]
≥ 3000	100 to 500	CNCC[C@H](c1cccc(F)c1)N1CCc2ncccc21 [Example 83, (R)-3-(2,3-Dihydro-1H-pyrrolo[3,2-b]pyridin-1-yl)-3-(3-fluorophenyl)-N-methylpropan-1-amine]
≥ 3000	100 to 500	CNCC[C@@H](c1cccc(F)c1)N1CC(C)(C)c2ncccc21 [Example 84, (S)-3-(3,3-Dimethyl-2,3-dihydro-1H-pyrrolo[3,2-b]pyridin-1-yl)-3-(3-fluorophenyl)-N-methylpropan-1-amine]
≥ 3000	> 1000	CNCC[C@H](c1cccc(F)c1)N1CC(C)(C)c2ncccc21 [Example 85, (R)-3-(3,3-Dimethyl-2,3-dihydro-1H-pyrrolo[3,2-b]pyridin-1-yl)-3-(3-fluorophenyl)-N-methylpropan-1-amine]
100 to 500	> 1000	CNCC[C@H](c1ccsc1)N1CC(C)(C)c2ncc(F)cc21 [Example 87, (R)-3-(6-Fluoro-3,3-dimethyl-2,3-dihydro-1H-pyrrolo[3,2-b]pyridin-1-yl)-N-methyl-3-(thiophen-3-yl)propan-1-amine]
100 to 500	500 to 1000	CNCC[C@@H](c1ccsc1)N1CC(C)(C)c2ncc(F)cc21 [Example 88, (S)-3-(6-Fluoro-3,3-dimethyl-2,3-dihydro-1H-pyrrolo[3,2-b]pyridin-1-yl)-N-methyl-3-(thiophen-3-yl)propan-1-amine]
100 to 500	100 to 500	CNCC[C@@H](c1ccsc1)N1CC(C)(C)c2nc(C)c(F)cc21 [Example 89, (S)-3-(6-Fluoro-3,3,5-trimethyl-2,3-dihydro-1H-pyrrolo[3,2-b]pyridin-1-yl)-N-methyl-3-(thiophen-3-yl)propan-1-amine]
< 100	> 1000	CNCC[C@H](c1ccsc1)N1CC(C)(C)c2nc(C)c(F)cc21 [Example 90, (R)-3-(6-Fluoro-3,3,5-trimethyl-2,3-dihydro-1H-pyrrolo[3,2-b]pyridin-1-yl)-N-methyl-3-(thiophen-3-yl)propan-1-amine]
